Marks after values point to notes of the source that are not given here.
Legend:
RAW264.7 cells = experiment: RAW264.7 cell survival rate by CCK8 method; assay type: cell-based, mouse; conditions: compound 10 prnol/L, 0.1% DMSO, CCK8, x ± s, n = 3, normal saline control = 1
In short: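 Mouse macrophage RAW264.7 cells exposed to compounds at 10 […] in medium containing 0.1% DMSO final, alongside a 0.1% DMSO saline control. Survival measured by CCK8, given as x±s, with groups compared by one-way ANOVA (p<0.05).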

apoE−/− mice [1] = experiment: Blood lipids (LDL-C, HDL-C) in apoE-/- mice on high-fat diet; assay type: in vivo, mouse; conditions: apoE-/- mice serum, intragastric 15 weeks, compounds 30 mg/(kg·d), simvastatin 10 mg/(kg·d), x ± s; for HDL-C: n = 5, saline control 3.74 ± 0.62; for LDL-C: n = 5, saline control 7.33 ± 1.03
In short: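 Male apoE−/− mice (ten weeks old) on high-fat diet (0.15% cholesterol, 21% lard) for 25 weeks; from week 10, compounds given intragastrically at 30 mg/(kg·d) for 15 weeks (n=5). Serum TC, LDL-C and HDL-C measured on an automatic biochemical analyzer; one-way ANOVA, p<0.05.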

apoE−/− mice [2] = experiment: Atherosclerotic plaque area to total aortic area in apoE-/- mice on high-fat diet (Sudan IV staining); assay type: in vivo, mouse; conditions: intragastric 15 weeks, compounds 30 mg/(kg·d), simvastatin 10 mg/(kg·d), x ± s, n = 5, saline control 14.67 ± 3.58
In short: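 Male apoE−/− mice, 10 weeks old, ate a high-fat diet (0.15% cholesterol, 21% lard) for 25 weeks and received compounds intragastrically at 30 mg/(kg·d) for 15 weeks from week 10 (n=5). Aortas from root to abdominal bifurcation were formalin-fixed and Sudan IV-stained. Lesion area was expressed as percent of total aortic area.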

[3] = system: RAW264.7 cell-derived foam cells; experiment: Formation of RAW264.7 cell-derived foam cells (ox-LDL, oil red O, absorbance 490 nm); assay type: cell-based, mouse; conditions: 48 hours, model group = 100%, x ± s, n = 3
In short: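 RAW264.7 foam cells, induced with 60 mg/L ox-LDL for 48 h, were treated 48 h with compound at 10 or 30 μmol/L in saline, in triplicate wells. Lipid was stained with oil red O, extracted in isopropanol and read at 490 nm. Values are cell-number-corrected lipid content as % of the model group.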

TNF-α = experiment: Local TNF-α level in the arteries of apoE-/- mice (Millipore liquid phase chip); assay type: in vivo, mouse; conditions: high-fat diet, intragastric 15 weeks, compounds 30 mg/(kg·d), simvastatin 10 mg/(kg·d), x ± s, n = 5, saline control 25.58 ± 6.44
In short: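 Male apoE−/− mice on a high-fat diet (0.15% cholesterol, 21% lard) for 25 weeks received compound at 30 mg/(kg·d) intragastrically from week 10 for 15 weeks (n=5). Arterial TNF-α was then measured with a magnetic bead cytokine panel. Groups were compared by one-way ANOVA.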

Row | Structure (SMILES) | Cell Survival Rate (RAW264.7 cells) | HDL-C (apoE−/− mice [1]) | LDL-C (apoE−/− mice [1]) | Plaque area/total aorta area (%) (apoE−/− mice [2]) | Foam cell formation (%) ([3]; dose 10 μmol/L) | Foam cell formation (%) ([3]; dose 30 μmol/L) | TNF-α level (ng/g) (TNF-α)
1 | COC(=O)[C@H](Cc1c[nH]c2ccccc12)NCCC[C@](C)(OC(C)=O)C1CC[C@]2(C)[C@@H]1C(OC(C)=O)CC1[C@@]3(C)CC[C@H](OC(C)=O)C(C)(C)C3CC[C@]12C (some centres unmarked) [Compound 30] | 0.95 ± 0.09 | 4.42 ± 0.57 ^a mmol/L | 6.37 ± 0.75 mmol/L | 9.99 ± 3.68 ^a % | 78 ± 12 ^a % | 64 ± 13 ^a % | 16.11 ± 4.19 ^a ng/g
2 | COC(=O)[C@H](Cc1ccccc1)NCCC[C@](C)(O[C@H]1O[C@H](COC(C)=O)[C@@H](OC(C)=O)[C@H](OC(C)=O)[C@H]1OC(C)=O)C1CC[C@]2(C)[C@@H]1C(OC(C)=O)CC1[C@@]3(C)CC[C@H](OC(C)=O)C(C)(C)C3CC[C@]12C (some centres unmarked) [Compound 12] | 0.87 ± 0.16 | 4.44 ± 0.83 ^a mmol/L | 5.27 ± 1.74 ^a mmol/L | 10.23 ± 3.54 ^a % | 84 ± 15% | 68 ± 21 ^a % | 18.27 ± 5.24 ^a ng/g
3 | CCOC(=O)CCNCCC[C@](C)(OC(C)=O)C1CC[C@]2(C)[C@@H]1C(OC(C)=O)CC1[C@@]3(C)CC[C@H](OC(C)=O)C(C)(C)C3CC[C@]12C (some centres unmarked) [Compound 25] | 0.98 ± 0.07 | 5.14 ± 0.87 ^a mmol/L | 4.82 ± 1.54 ^a mmol/L | 8.33 ± 2.44 ^a % | 62 ± 18 ^a % | 44 ± 15 ^a % | 11.65 ± 5.45 ^a ng/g
4 | COC(=O)[C@H](Cc1c[nH]cn1)NCCC[C@](C)(OC(C)=O)C1CC[C@]2(C)[C@@H]1C(OC(C)=O)CC1[C@@]3(C)CC[C@H](OC(C)=O)C(C)(C)C3CC[C@]12C (some centres unmarked) [Compound 29] | 1.00 ± 0.16 | 4.10 ± 0.78 ^a mmol/L | 6.27 ± 1.59 mmol/L | 9.67 ± 2.51 ^a % | 85 ± 10% | 72 ± 18 ^a % | 14.93 ± 3.67 ^a ng/g
5 | COC(=O)[C@@H](NCCC[C@](C)(O[C@H]1O[C@H](COC(C)=O)[C@@H](OC(C)=O)[C@H](OC(C)=O)[C@H]1OC(C)=O)C1CC[C@]2(C)[C@@H]1C(OC(C)=O)CC1[C@@]3(C)CC[C@H](OC(C)=O)C(C)(C)C3CC[C@]12C)C(C)C (some centres unmarked) [Compound 5] | 0.87 ± 0.08 | 5.21 ± 0.73 ^a mmol/L | 5.58 ± 1.89 ^a mmol/L | 10.29 ± 2.67 ^a % | 77 ± 18 ^a % | 62 ± 13 ^a % | 17.73 ± 4.87 ^a ng/g

— patent US11091511B2, “Panaxdiol-type ginsenoside derivative, preparation method therefor and use thereof” (ARMY MEDICAL UNIVERSITY, priority 2016, dated 2021)
